Tests used:
human QC = molecular target: T1, human QC (Homo sapiens, UniProt Q16769); assay: QC inhibition by chelators (inhibitor assay); type: biochemical; details: human QC and other animal QCs
T1 construct: The cDNA of the mature QC starting with codon 38 was fused in frame with the plasmid encoded 6× histidine tag; 6x histidine; made in house; host or cells: Pichia pastoris X33 (pPICZαB) or E. coli M15 (pQE-31)
Procedure: QC activity was evaluated fluorometrically using H-Gln-βNA. The samples consisted of 0.2 mM fluorogenic substrate, 0.25 U pyroglutamyl aminopeptidase (Unizyme, Horsholm, Denmark) in 0.2 M Tris/HCl, pH 8.0 containing 20 mM EDTA and an appropriately diluted aliquot of QC in a final volume of 250 μl. Excitation/emission wavelengths were 320/410 nm. The assay reactions were initiated by addition of glutaminyl cyclase. QC activity was determined from a standard curve of β-naphthylamine under assay conditions.
Reactions were carried out at 30° C. utilizing the NOVOStar reader for microplates (BMG labtechnologies). The samples consisted of varying concentrations of the fluorogenic substrate, 0.1 U pyroglutamyl aminopeptidase (Qiagen) in 0.05 M Tris/HCl, pH 8.0 containing 5 mM EDTA and an appropriately diluted aliquot of QC in a final volume of 250 μl. Excitation/emission wavelengths were 380/460 nm. The assay reactions were initiated by addition of glutaminyl cyclase. QC activity was determined from a standard curve of 7-amino-4-methylcoumarin under assay conditions. The kinetic data were evaluated using GraFit software.
This novel assay was used to determine the kinetic parameters for most of the QC substrates.
The initial velocities were evaluated and the enzymatic activity was determined from a standard curve of ammonia under assay conditions. All samples were measured at 30° C., using either the […]uor Plus or the Sunrise (both from TECAN) reader for microplates. Kinetic data was evaluated using GraFit software.
For inhibitor testing, the sample composition was the same as described above, except for the putative inhibitory compound added. For a rapid test of QC-inhibition, samples contained 4 mM of the respective inhibitor and a substrate concentration at 1 KM. For detailed investigations of the inhibition and determination of Ki-values, influence of the inhibitor on the auxiliary enzymes was investigated first. […] The inhibitory constant was evaluated by fitting the set of progress curves to the general equation for competitive inhibition using GraFit software.

mammalian QC = details: Busby et al. 1987 and later reports; cited from earlier work
[1] = Nonenzymatic turnover (cyclization) of model substrates; type: physicochemical; details: without enzyme
QC = assay: pH-dependence of the QC catalyzed conversion of Glu-βNA; type: biochemical
[2] = cited from earlier work

T1 sequence (Q16769 29-361): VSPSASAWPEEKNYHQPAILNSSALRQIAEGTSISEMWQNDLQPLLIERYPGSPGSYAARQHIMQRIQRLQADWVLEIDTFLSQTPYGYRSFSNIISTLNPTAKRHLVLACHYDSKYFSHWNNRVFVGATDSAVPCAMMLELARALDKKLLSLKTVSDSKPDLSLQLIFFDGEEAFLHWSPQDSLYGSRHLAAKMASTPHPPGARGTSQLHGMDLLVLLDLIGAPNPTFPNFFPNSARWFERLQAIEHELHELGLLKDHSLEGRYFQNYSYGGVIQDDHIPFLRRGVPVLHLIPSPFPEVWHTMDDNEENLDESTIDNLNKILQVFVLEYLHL

Row | Compound | inhibition characteristics of QC by chelators (human QC) | Inhibition of a mammalian QC (mammalian QC) | also measured
1 | c1cnc2c(c1)ccc1cccnc12 [1,10-phenanthroline] | inhibition | detected | 
2 | Oc1cccc2cccnc12 [8-hydroxy-quinoline] | inhibition |  | 
3 | O=C(O)CN(CCN(CC(=O)O)CC(=O)O)CC(=O)O [EDTA] |  | did not inhibit | 
4 | NC(=O)CC[C@H](N)C(=O)Nc1ccc2ccccc2c1 [Gln-NA, Glutaminyl-beta-naphthylamine] |  |  | nonenzymatic turnover [1]: negligible
5 | N[C@@H](CCC(=O)O)C(=O)Nc1ccc2ccccc2c1 [Glu-βNA] |  |  | kinetically determined pKa-value (QC): 7.55+/−0.02; pH-optimum of catalysis (QC): ~6.0; nonenzymatic turnover [1]: negligible
6 | N[C@@H](CCC(=O)O)C(=O)O [Glutamate] |  |  | pKa-value for the α-amino moiety [2]: ~7.5; pKa-value for the γ-carboxylic moiety [2]: about 4.2
7 | O=C(O)c1cccc(C(=O)O)n1 [dipicolinic acid] | inhibition |  | 
8 | reduced 6-methylpterin |  | detected | 
